For this assay, the target named is γ-secretase (Homo sapiens (Human), UniProt P49768). As to the kind of experiment: Cellular γ-secretase assay (Aβ42 secretion, AlphaLisa). It is filed as cell-based. The following applies: inhibition of Aβ42 secretion; human neuroglioma H4 cells overexpressing human APP695 Swedish double mutation; 24 hr compound incubation. The method, then: Human neuroglioma H4 cells overexpressing human APP695 with the Swedish double mutation (K595N/M596L) were plated at 30,000 cells/well/100 μl in 96-well plates in IMDM media containing 10% FCS, 0.2 mg/l Hygromycin B and incubated at 37° C., 5% CO2.
3-4 hr post plating, compounds are a diluted in media and 50 μl is added as […] concentrate to achieve the final concentration. Compound incubation is performed for 24 hr. Final doses typically range from 4 μM down to 0.0013 μM in half-log steps resulting in an eight point dose response curve. Appropriate controls using vehicle only and reference compound were applied to this assay. The final concentration of Me2SO was 0.4%.
After incubation at 37° C., 5% CO2, the supernatant was subjected to quantification of secreted Aβ42 by the means of an AlphaLisa assay kit (Human Amyloid beta 1-42 Kit: Cat # AL203C, Perkin Elmer). 20 μl of the cell culture supernatant was transferred to an assay plate. Then 10 μl of a mixture of the AlphaLisa coupled capture antibody and the biotinylated detection antibody was added and incubated for 3 hours at room temperature while softly shaking the assay plate. After a further addition of 20 μl of the Donor beads the assay plate was incubated for 30 min at room temperature and constant shaking without exposure to direct light. The assay plate was then read on a Paradigm AlphaLisa Reader using the build-in program with excitation at 680 nm and emission at […]. The measured signals were then used to calculate IC50 values for inhibition of Aβ42 secretion by nonlinear regression fit analysis using XLfit 5.3 software (IDBS).
Background: Bead proximity is the source of the signal in Alpha formats.
Broadly, the EC50 is the concentration needed to bring the measured effect to its halfway point. Read a high EC50 as weaker potency. Turning to `CNc1nc(Nc2ccc(-c3nnc(C)o3)c(OC)c2)nc2c1C(C)(C)CN2c1ccc(F)cc1` [Example 27, 7-(4-Fluorophenyl)-N2-(3-methoxy-4-(5-methyl-1,3,4-oxadiazol-2-yl)phenyl)-N4,5,5-trimethyl-6,7-dihydro-5H-pyrrolo[2,3-d]pyrimidine-2,4-diamine], the EC50 was 30 nM.
`Cc1ncn(-c2ccc(Nc3nc(NCCO)c4c(n3)N(c3ccc(F)cc3)CC4(C)C)cc2F)n1` [Example 31, 2-((2-((3-Fluoro-4-(3-methyl-1H-1,2,4-triazol-1-yl)phenyl)amino)-7-(4-fluorophenyl)-5,5-dimethyl-6,7-dihydro-5H-pyrrolo[2,3-d]pyrimidin-4-yl)amino)ethanol] gave a half-maximal effective concentration (EC50) of 15 nM.
Compound `CNc1nc(Nc2ccc(-n3cnc(C)n3)c(OC)c2)nc2c1C(C)(C)CN2c1cccc(F)c1F` [Example 41, 7-(2,3-Difluorophenyl)-N2-(3-methoxy-4-(3-methyl-1H-1,2,4-triazol-1-yl)phenyl)-N4,5,5-trimethyl-6,7-dihydro-5H-pyrrolo[2,3-d]pyrimidine-2,4-diamine] gave an EC50 of 9 nM.
Then `CNc1nc(Nc2cnc(-n3cnc(C)c3)c(OC)c2)nc2c1CCN2c1ccc(F)cc1` [Example 33, 7-(4-Fluorophenyl)-N2-(5-methoxy-6-(4-methyl-1H-imidazol-1-yl)pyridin-3-yl)-N4-methyl-6,7-dihydro-5H-pyrrolo[2,3-d]pyrimidine-2,4-diamine], with 6 nM.
The result for `CNc1nc(Nc2cnc(-n3cnc(C)c3)c(OC)c2)nc2c1C(C)(C)CN2c1ccc(F)c(F)c1` [Example 15, 7-(3,4-Difluorophenyl)-N2-(5-methoxy-6-(4-methyl-1H-imidazol-1-yl)pyridin-3-yl)-N4,5,5-trimethyl-6,7-dihydro-5H-pyrrolo[2,3-d]pyrimidine-2,4-diamine] reads 8 nM.
In the case of `COc1cc(Nc2nc(NCCO)c3c(n2)N(c2ccc(F)cc2)CC3(C)C)cnc1-n1cnc(C)c1` [Example 29, 2-((7-(4-Fluorophenyl)-2-((5-methoxy-6-(4-methyl-1H-imidazol-1-yl)pyridin-3-yl)amino)-5,5-dimethyl-6,7-dihydro-5H-pyrrolo[2,3-d]pyrimidin-4-yl)amino)ethanol], a half-maximal effect (EC50) was put at 6 nM.
Compound `CNc1nc(Nc2ccc(-n3cnc(C)c3)c(F)c2)nc2c1[C@@H](C)CN2c1ccc(F)cc1` (single isomer, unassigned) [Example 46q, (R)— or (S)—N2-(3-Fluoro-4-(4-methyl-1H-imidazol-1-yl)phenyl)-7-(4-fluorophenyl)-N4,5-dimethyl-6,7-dihydro-5H-pyrrolo[2,3-d]pyrimidine-2,4-diamine] had an EC50 of 7 nM.
As for `CNc1nc(Nc2ccc(-n3cnc(C)n3)c(F)c2)nc2c1C(C)(C)CN2c1ccc(F)c(F)c1` [Example 9, 7-(3,4-Difluorophenyl)-N2-(3-fluoro-4-(3-methyl-1H-1,2,4-triazol-1-yl)phenyl)-N4,5,5-trimethyl-6,7-dihydro-5H-pyrrolo[2,3-d]pyrimidine-2,4-diamine], the EC50 amounted to 26 nM.
Then `COc1cc(Nc2nc(NCCO)c3c(n2)N(c2ccc(F)cc2)CC3(C)C)cnc1-n1cnc(Cl)c1` [Example 30, 2-((2-((6-(4-Chloro-1H-imidazol-1-yl)-5-methoxypyridin-3-yl)amino)-7-(4-fluorophenyl)-5,5-dimethyl-6,7-dihydro-5H-pyrrolo[2,3-d]pyrimidin-4-yl)amino)ethanol], with 11 nM.
Then `CNc1nc(Nc2cnc(-n3cnc(C)c3)c(F)c2)nc2c1C(C)(C)CN2c1ccc(F)cc1F` [Example 26, 7-(2,4-Difluorophenyl)-N2-(5-fluoro-6-(4-methyl-1H-imidazol-1-yl)pyridin-3-yl)-N4,5,5-trimethyl-6,7-dihydro-5H-pyrrolo[2,3-d]pyrimidine-2,4-diamine], with 6 nM; and `CNc1nc(Nc2ccc(-n3cnc(C)n3)nc2)nc2c1C(C)(C)CN2c1ccc(F)cc1` [Example 13, 7-(4-Fluorophenyl)-N4,5,5-trimethyl-N2-(6-(3-methyl-1H-1,2,4-triazol-1-yl)pyridin-3-yl)-6,7-dihydro-5H-pyrrolo[2,3-d]pyrimidine-2,4-diamine], with 23 nM.
Then `CNc1nc(Nc2cnc(-n3cnc(Cl)c3)c(OC)c2)nc2c1C(C)(C)CN2c1ccc(F)cc1F` [Example 23, N2-(6-(4-Chloro-1H-imidazol-1-yl)-5-methoxypyridin-3-yl)-7-(2,4-difluorophenyl)-N4,5,5-trimethyl-6,7-dihydro-5H-pyrrolo[2,3-d]pyrimidine-2,4-diamine], with 8 nM; and `CNc1nc(Nc2ccc(-n3cc(C)nc3C)c(F)c2)nc2c1C(C)(C)CN2c1ccc(F)cc1` [Example 11, N2-(4-(2,4-Dimethyl-1H-imidazol-1-yl)-3-fluorophenyl)-7-(4-fluorophenyl)-N4,5,5-trimethyl-6,7-dihydro-5H-pyrrolo[2,3-d]pyrimidine-2,4-diamine], with 33 nM; and `CNc1nc(Nc2cnc(-n3cnc(C)c3)c(OC)c2)nc2c1C(C)(C)CN2C1CC(F)(F)C1` [Example 18, 7-(3,3-Difluorocyclobutyl)-N2-(5-methoxy-6-(4-methyl-1H-imidazol-1-yl)pyridin-3-yl)-N4,5,5-trimethyl-6,7-dihydro-5H-pyrrolo[2,3-d]pyrimidine-2,4-diamine], with 14 nM.
`CNc1nc(Nc2ccc(-n3cnc(C)c3)cc2)nc2c1C(C)(C)CN2c1ccc(F)cc1` [Example 12, 7-(4-Fluorophenyl)-N4,5,5-trimethyl-N2-(4-(4-methyl-1H-imidazol-1-yl)phenyl)-6,7-dihydro-5H-pyrrolo[2,3-d]pyrimidine-2,4-diamine] registered a concentration for a half-maximal effect (EC50) of 13 nM.
Then `CNc1nc(Nc2ccc(-n3cnc(C)n3)cc2)nc2c1C(C)(C)CN2c1ccc(F)cc1` [Example 10, 7-(4-Fluorophenyl)-N4,5,5-trimethyl-N2-(4-(3-methyl-1H-1,2,4-triazol-1-yl)phenyl)-6,7-dihydro-5H-pyrrolo[2,3-d]pyrimidine-2,4-diamine], with 51 nM; and `CNc1nc(Nc2ccc(-n3cnc(C)n3)c(OC)c2)nc2c1CCN2c1ccc(F)cc1` [Example 32, 7-(4-Fluorophenyl)-N2-(3-methoxy-4-(3-methyl-1H-1,2,4-triazol-1-yl)phenyl)-N4-methyl-6,7-dihydro-5H-pyrrolo[2,3-d]pyrimidine-2,4-diamine], with 10 nM; and `CNc1nc(Nc2ccc(-c3cnc(C)o3)c(F)c2)nc2c1C(C)(C)CN2c1ccc(F)cc1` [Example 16, N2-(3-Fluoro-4-(2-methyloxazol-5-yl)phenyl)-7-(4-fluorophenyl)-N4,5,5-trimethyl-6,7-dihydro-5H-pyrrolo[2,3-d]pyrimidine-2,4-diamine], with 30 nM.
The result for `CNc1nc(Nc2ccc(-n3cnc(C)c3)c(F)c2)nc2c1C(C)(C)CCN2c1ccc(F)cc1` [Example 37, N2-(3-Fluoro-4-(4-methyl-1H-imidazol-1-yl)phenyl)-8-(4-fluorophenyl)-N4,5,5-trimethyl-5,6,7,8-tetrahydropyrido[2,3-d]pyrimidine-2,4-diamine] reads 8 nM; that for `CNc1nc(Nc2ccc(-n3cnc(Cl)c3)c(OC)c2)nc2c1C(C)(C)CN2c1ccc(F)cc1` [Example 4, N2-(4-(4-Chloro-1H-imidazol-1-yl)-3-methoxyphenyl)-7-(4-fluorophenyl)-N4,5,5-trimethyl-6,7-dihydro-5H-pyrrolo[2,3-d]pyrimidine-2,4-diamine], 7 nM.

Source of the values: US10669276B2, “Fused pyrimidine derivatives” (Hoffmann-La Roche Inc., priority 2016, dated 2020).
